Assay results as given in patent US20160106102A1, “KNOWN AND NEW HETEROCYCLIC COMPOUNDS AS PEST CONTROL AGENTS” (BAYER CROPSCIENCE AKTIENGESELLSCHAFT, priority 2013, published 2016).

Key:
Myzus persicae [1] = assay: Myzus persicae - spray test; assay type: in vivo; conditions: application rate of 500 g/ha; after 6 days; sprayed Chinese cabbage leaf discs infested by all stages; 100% = all aphids killed
How it was run: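 Chinese cabbage leaf discs infested with all stages of green peach aphid sprayed with compound in acetone/DMF formulation with alkylaryl polyglycol ether emulsifier, diluted in emulsifier-containing water. Efficacy (% aphids killed) assessed after 6 days.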

Tetranychus urticae = Tetranychus urticae - spray test, OP-resistant (TETRUR); assay type: in vivo; conditions: application rate of 500 g/ha; after 6 days; bean leaf discs infested by all stages; 100% = all spider mites killed
Procedure: Tetranychus urticae—spray test, OP-resistant (TETRUR)
(§1) Solvent: 78.0 parts by weight of acetone • • 1.5 parts by weight of dimethylformamide
(§2) Emulsifier: alkylaryl polyglycol ether
(§3) To produce an appropriate active ingredient formulation, 1 part by weight of active ingredient is dissolved using the specified parts by weight of solvent and made up with water containing an emulsifier concentration of 1000 ppm until the desired concentration is attained. To produce further test concentrations, the preparation is diluted with emulsifier-containing water.
Discs of bean leaves (Phaseolus vulgaris) infested by all stages of the greenhouse red spider mite (Tetranychus urticae) are sprayed with an active ingredient formulation of the desired concentration.
After 6 days, the efficacy in % is determined. 100% means that all the spider mites have been killed; 0% means that no spider mites have been killed.

Myzus persicae [2] = assay: Myzus persicae - sachet test; assay type: in vivo; conditions: 100% = all animals killed
How it was run: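 Active ingredient dissolved with 2% N-methylpyrrolidone and 2% diacetone alcohol, diluted in water, then pipetted into nutrient medium. Plate sealed and paired with a plate carrying green peach aphids. Kill in % scored after the set time (100% = all dead, 0% = none dead).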

[3] = log P determination by LC-MS in the acidic range; assay type: physicochemical; conditions: LC-MS in the acidic range
Excerpt: The LC-MS determination in the acidic range is effected at pH 2.7 using 0.1% aqueous formic acid and acetonitrile (contains 0.1% formic acid) as eluents, linear gradient from 10% acetonitrile to 95% acetonitrile. Alternatively, the determination is effected in the acidic range at pH 2.3 using 0.1% aqueous phosphoric acid and acetonitrile as eluents; linear gradient from 10% acetonitrile to 95% acetonitrile.

Phaedon cochleariae = Phaedon cochleariae - spray test (PHAECO); assay type: in vivo; conditions: application rate of 500 g/ha; after 7 days; larvae of the mustard beetle on sprayed Chinese cabbage leaf discs; 100% = all larvae killed
Procedure: Phaedon cochleariae—Spray Test (PHAECO)
as §1, §2, §3
Discs of Chinese cabbage leaves (Brassica pekinensis) are sprayed with an active ingredient formulation of the desired concentration and, after drying, populated with larvae of the mustard beetle (Phaedon cochleariae).
After 7 days, the efficacy in % is determined. 100% means that all the beetle larvae have been killed; 0% means that no beetle larvae have been killed.

Spodoptera frugiperda = Spodoptera frugiperda - spray test (SPODFR); assay type: in vivo; conditions: application rate of 500 g/ha; after 7 days; armyworm caterpillars on sprayed maize leaf discs; 100% = all caterpillars killed
Procedure: Spodoptera frugiperda—Spray Test (SPODFR)
as §1, §2, §3
Leaf discs of maize (Zea mays) are sprayed with an active ingredient formulation of the desired concentration and, after drying, populated with caterpillars of the armyworm (Spodopterafrugiperda).
After 7 days, the efficacy in % is determined. 100% means that all the caterpillars have been killed; 0% means that no caterpillars have been killed.

[4] = application rate of 6 ppm in nutrient medium
[5] = application rate of 30 ppm in nutrient medium

Row | SMILES | efficacy in % (Myzus persicae [1]) | efficacy in % (Tetranychus urticae) | efficacy (kill in %) (Myzus persicae [2]; [4]) | efficacy (kill in %) (Myzus persicae [2]; [5]) | log P (acid) [3] | efficacy in % (Phaedon cochleariae) | efficacy in % (Spodoptera frugiperda)
1 | Cc1nc(Cn2nc(NC(=O)c3cccnc3)cc2C)no1 [Compound I-1-282] | 90% | 90% | 100% | 100% | 0.9 | – | –
2 | Cc1cc(NC(=O)c2cccnc2)nn1C(=O)C(C)C [Compound I-1-130] | 90% | – | 100% | 100% | 1.95 | 100% | 100%
3 | Cc1cc(N(C(=O)c2cccnc2)C(=O)c2cccc(Cl)c2)nn1C(=O)c1cccc(Cl)c1 [Compound I-1-22] | 100% | – | 100% | 100% | 3.98 | 83% | 83%
4 | CCC(C)n1nc(NC(=O)c2cccnc2)cc1C (centres unmarked) [Compound I-1-205] | 100% | 90% | – | 100% | 1.59 | – | –
5 | O=C(Nc1ccn(-c2ncccc2Cl)n1)c1cccnc1 [Compound I-1-48] | – | – | – | 100% | 1.25 | 100% | 100%
6 | CCCC(=O)n1nc(NC(=O)c2cccnc2)cc1C [Compound I-1-131] | 90% | 90% | 100% | 100% | 1.94 | 100% | 100%
7 | CCC(CC)n1nc(NC(=O)c2cccnc2)cc1C [Compound I-1-210] | – | 90% | – | 80% | 1.92 | – | –
